Measured values: patent US12421220B2, “Bicyclic-substituted glutarimide cereblon binders” (C4 THERAPEUTICS, INC., priority 2022, dated 2025)

Each molecule was assayed against CRBN-DDB1 (CRBN_DDB1.3) (Homo sapiens, UniProt Q96SW2) (assay: Fluorescence polarization (FP) binding assay, CRBN_DDB1.3 construct). Conditions: 0.05% PA, 0.1% BSA; benzomorpholine binders; read-out: FP CRBN_DDB1.3 0.05% PA, 0.1% BSA Ka nM.
Method: Example 2: Fluorescence Polarization (FP) Assay for Screening Compound Ligand Binders of CRBN-DDB1
Measuring compound ligand binding to CRBN-DDB 1 was carried out using an established sensitive and quantitative in vitro fluorescence polarization (FP) based binding assay. (See, I. J. Enyedy et al, J. Med. Chem., 44: […] [2001]). Compounds were dispensed from serially diluted DMSO stock into black 384-well compatible fluorescence polarization plates using an Echo acoustic dispenser. Compound binding to CRBN-DDB 1 was measured by displacement of an established CRBN binding ligand conjugated to an Alexa Fluor® dye (probe). A […] mixture containing 10nM CRBN-DDB1 and 5 nM probe in 50 mM Hepes, pH 7.4, 200 mM NaCl, 1% DMSO, 0.1% BSA and 0.05% o pluronic acid-127 acid was added to wells containing compound and incubated at room temperature for 60 min. Matching control wells excluding CRBN-DDB 1 were used to correct for background fluorescence. Plates were read on an Envision plate reader with appropriate FP filter sets. The corrected S (perpendicular) and P (parallel) values were used to calculate fluorescence polarization (FP) with the following equation: FP=1000*(S−G*P)/(S+G*P).
The fractional amount of bound probe (FB) to CRBN-DDB 1 as a function of compound concentration was fitted according to Wang; FEBS Letters 360, (1995), 111-114 to obtain fits for parameter offsets and binding constant (KA) of competitor compound.

Chain of CRBN-DDB1 (CRBN_DDB1.3) (Q96SW2 318-426 limits assumed): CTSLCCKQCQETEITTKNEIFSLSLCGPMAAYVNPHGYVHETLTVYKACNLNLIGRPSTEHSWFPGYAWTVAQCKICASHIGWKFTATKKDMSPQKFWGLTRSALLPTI

Row | Kd [nM] | Compound
1 | ≤ 100000 | CC(C)(C)OC(=O)CN1CCC(c2cccc3c2OCCN3[C@H]2CCC(=O)NC2=O)CC1 (single isomer, unassigned) [Compound 24-3]
2 | ≤ 100000 | CN(C(=O)OC(C)(C)C)C1CCN(c2cccc3c2OCCN3[C@H]2CCC(=O)NC2=O)CC1 (single isomer, unassigned) [Compound 16-6]
3 | ≤ 100000 | O=C(O)CN1CCC(c2cccc3c2OCC(=O)N3C2CCC(=O)NC2=O)CC1 (centres unmarked) [Compound 29-5, 2-(4-(4-(2,6-dioxopiperidin-3-yl)-3-oxo-3,4-dihydro-2H-benzo[b][1,4]oxazin-8-yl)piperidin-1-yl)acetic acid]
4 | ≤ 100000 | O=C1CCC(N2CCOc3c([C@H]4CCCNC4)cccc32)C(=O)N1 (stereo partly drawn) [Compound 13-8, 3-[8-[(3R)-3-piperidyl]-2,3-dihydro-1,4-benzoxazin-4-yl]piperidine-2,6-dione]
5 | ≤ 100000 | CC(C)(C)OC(=O)CN1CCC(c2cccc3c2OCCN3[C@@H]2CCC(=O)NC2=O)CC1 (single isomer, unassigned) [Compound 24-4]
6 | ≤ 100000 | O=C1CCC(N2CCOc3c(C4CCC5(CCNCC5)CC4)cccc32)C(=O)N1 (centres unmarked) [Compound 20-7, 3-[8-(3-azaspiro[5.5]undecan-9-yl)-2,3-dihydro-1,4-benzoxazin-4-yl]piperidine-2,6-dione]
7 | ≤ 1000 | CN(C(=O)OC(C)(C)C)C1CCN(c2cccc3c2OCCN3[C@@H]2CCC(=O)NC2=O)CC1 (single isomer, unassigned) [Compound 16-7]
8 | ≤ 100000 | O=C1CCC(c2cccc3c2OCCN3C2CCC(=O)NC2=O)CC1 (centres unmarked) [Compound 5-14, 3-[8-(4-oxocyclohexyl)-2,3-dihydro-1,4-benzoxazin-4-yl]piperidine-2,6-dione]
9 | ≤ 100000 | O=C1CCC(N2CCOc3c(N4CCC(O)(C(=O)O)CC4)cccc32)C(=O)N1 (centres unmarked) [Compound 27-8, 1-[4-(2,6-dioxo-3-piperidyl)-2,3-dihydro-1,4-benzoxazin-8-yl]-4-hydroxy-piperidine-4-carboxylic acid]
10 | ≤ 100000 | O=C1CCC(N2CCOc3c([C@@H]4CCCNC4)cccc32)C(=O)N1 (stereo partly drawn) [Compound 13-11, 3-[8-[(3S)-3-piperidyl]-2,3-dihydro-1,4-benzoxazin-4-yl]piperidine-2,6-dione]
11 | ≤ 100000 | O=C1CCC(c2ccnc3c2OCCN3C2CCC(=O)NC2=O)CC1 (centres unmarked) [Compound 8-10, 3-(8-(4-oxocyclohexyl)-2,3-dihydro-4H-pyrido[3,2-b][1,4]oxazin-4-yl)piperidine-2,6-dione]
12 | ≤ 100000 | CNC1CCN(c2cccc3c2O[C@@H](C)CN3C2CCC(=O)NC2=O)CC1 (stereo partly drawn) [Compound 18-13, 3-[(2S)-2-methyl-8-[4-(methylamino)-1-piperidyl]-2,3-dihydro-1,4-benzoxazin-4-yl]piperidine-2,6-dione]
13 | ≤ 100000 | CNC1CCN(c2cccc3c2O[C@H](C)CN3C2CCC(=O)NC2=O)CC1 (stereo partly drawn) [Compound 18-10, 3-[(2R)-2-methyl-8-[4-(methylamino)-1-piperidyl]-2,3-dihydro-1,4-benzoxazin-4-yl]piperidine-2,6-dione]
14 | ≤ 100000 | O=C1CCN(c2cccc3c2OCCN3C2CCC(=O)NC2=O)CC1 (centres unmarked) [Compound 6-12, 3-(8-(4-oxopiperidin-1-yl)-2,3-dihydro-4H-benzo[b][1,4]oxazin-4-yl)piperidine-2,6-dione]
15 | ≤ 100000 | O=C1CCC(N2CCOc3c(N4CCNCC4)cccc32)C(=O)N1 (centres unmarked) [Compound 10-10, 3-(8-(piperazin-1-yl)-2H-benzo[b][1,4]oxazin-4(3H)-yl)piperidine-2,6-dione]
16 | ≤ 100000 | O=C1CCC(N2CCOc3c([C@@H]4CCNC4)cccc32)C(=O)N1 (stereo partly drawn) [Compound 14-7, 3-(8-((S)-pyrrolidin-3-yl)-2H-benzo[b][1,4]oxazin-4(3H)-yl)piperidine-2,6-dione]

Same assay, conditions: 0.05% PA, 0.1% BSA; indoline binders; read-out: FP CRBN_DDB1.3 0.05% PA, 0.1% BSA ka nM

Row | Compound | Kd [nM]
17 | CC(C)(C)OC(=O)CC1CCN(c2cccc3c2CCN3[C@H]2CCC(=O)NC2=O)CC1 (single isomer, unassigned) [Compound 39-5] | < 100000
18 | CC(C)(C)OC(=O)CC1(O)CCN(c2cccc3c2CCN3[C@H]2CCC(=O)NC2=O)CC1 (single isomer, unassigned) [Compound 38-6] | < 100000
19 | CC(C)(C)OC(=O)C1CCN(c2cccc3c2CCN3[C@H]2CCC(=O)NC2=O)CC1 (single isomer, unassigned) [Compound 48-6] | < 100000
20 | O=C1CCC(N2CCc3c(N4CCC(CCO)CC4)cccc32)C(=O)N1 (racemic) [Compound 42-4, 3-[4-[4-(2-hydroxyethyl)-1-piperidyl]indolin-1-yl]piperidine-2,6-dione] | < 100000
21 | CC(C)(C)OC(=O)C1CCN(c2cccc3c2CCN3[C@@H]2CCC(=O)NC2=O)CC1 (single isomer, unassigned) [Compound 48-7] | < 100000
22 | O=C1CC[C@@H](N2CCc3c(N4CCC(CO)CC4)cccc32)C(=O)N1 (single isomer, unassigned) [Compound 53-6] | < 100000
23 | CC(C)(C)OC(=O)N1CCC(c2cc3c(cc2F)N([C@@H]2CCC(=O)NC2=O)CC3)CC1 (single isomer, unassigned) [Compound 52-7] | < 100000
24 | O=C1CC[C@H](N2CCc3c(N4CCC(CO)CC4)cccc32)C(=O)N1 (single isomer, unassigned) [Compound 53-5] | < 1000
25 | CC(C)(C)OC(=O)CC1(O)CCN(c2cccc3c2CCN3[C@@H]2CCC(=O)NC2=O)CC1 (single isomer, unassigned) [Compound 38-7] | < 1000
26 | CC(C)(C)OC(=O)N1CCC(c2ccc3c(c2)CCN3[C@@H]2CCC(=O)NC2=O)CC1 (single isomer, unassigned) [Compound 40-5] | < 1000
27 | CC(C)(C)OC(=O)N1CCC(c2cc3c(cc2F)N([C@H]2CCC(=O)NC2=O)CC3)CC1 (single isomer, unassigned) [Compound 52-6] | < 1000
28 | CC(C)(C)OC(=O)C1CCN(Cc2cccc3c2CCN3[C@H]2CCC(=O)NC2=O)CC1 (single isomer, unassigned) [Compound 54-6] | < 100000
29 | O=C1CCC(N2CCc3c(N4CCC(C(F)(F)CO)CC4)cccc32)C(=O)N1 (centres unmarked) [Compound 51-12, 3-[4-[4-(1,1-difluoro-2-hydroxy-ethyl)-1-piperidyl]indolin-1-yl]piperidine-2,6-dione] | < 100000

The next lines start with the values.

Row | Kd [nM] | Compound
30 | < 100000 | CC(C)(C)OC(=O)C1CCN(Cc2cccc3c2CCN3[C@@H]2CCC(=O)NC2=O)CC1 (single isomer, unassigned) [Compound 54-7]
31 | < 100000 | CN(C(=O)OC(C)(C)C)[C@H]1CC[C@@H](c2c(F)cc3c(c2F)CCN3[C@H]2CCC(=O)NC2=O)CC1 (single isomer, unassigned) [Compound 55-6]
32 | < 100000 | CN(C(=O)OC(C)(C)C)[C@H]1CC[C@@H](c2c(F)cc3c(c2F)CCN3[C@@H]2CCC(=O)NC2=O)CC1 (single isomer, unassigned) [Compound 55-7]
33 | < 100000 | CC(C)(C)OC(=O)N1CC[C@H]2CN(c3cccc4c3CCN4[C@H]3CCC(=O)NC3=O)CC[C@H]21 (single isomer, unassigned) [Compound 56-8a]
34 | < 100000 | CN(C(=O)OC(C)(C)C)[C@H]1CC[C@H](c2c(F)cc3c(c2F)CCN3[C@H]2CCC(=O)NC2=O)CC1 (single isomer, unassigned) [Compound 55-4]

Same assay, conditions: 0.05% PA, 0.1% BSA; tetrahydroquinoline binders; read-out: FP CRBN_DDB1.3 0.05% PA, 0.1% BSA ka nM

Row | Kd [nM] | Compound
35 | < 100000 | CC(C)(C)OC(=O)N1CCC(OC2CCN(c3cccc4c3CCCN4[C@H]3CCC(=O)NC3=O)CC2)CC1 (single isomer, unassigned) [Compound 67-6]
36 | < 1000 | CC(C)(C)OC(=O)CN1CCC(c2cccc3c2CCCN3[C@H]2CCC(=O)NC2=O)CC1 (single isomer, unassigned) [Compound 60-3]
37 | < 1000 | CC(C)(C)OC(=O)N1CCC(OC2CCN(c3cccc4c3CCCN4[C@@H]3CCC(=O)NC3=O)CC2)CC1 (single isomer, unassigned) [Compound 67-7]
38 | < 1000 | CN(C(=O)OC(C)(C)C)C1CCN(c2cccc3c2CCCN3[C@@H]2CCC(=O)NC2=O)CC1 (single isomer, unassigned) [Compound 61-6]
39 | < 100000 | CC(C)(C)OC(=O)N1CCN(c2cccc3c2CCCN3[C@H]2CCC(=O)NC2=O)CC1 (single isomer, unassigned) [Compound 68-3]
40 | < 100000 | CC(C)(C)OC(=O)CN1CCC(c2cccc3c2CCCN3[C@@H]2CCC(=O)NC2=O)CC1 (single isomer, unassigned) [Compound 60-4]
41 | < 1000 | CC(C)(C)OC(=O)N1CCN(c2cccc3c2CCCN3[C@@H]2CCC(=O)NC2=O)CC1 (single isomer, unassigned) [Compound 68-4]
42 | < 100000 | O=C1CC[C@@H](N2CCCc3c(N4CCC(CCO)CC4)cccc32)C(=O)N1 (single isomer, unassigned) [Compound 66-5]
43 | < 1000 | O=C1CC[C@H](N2CCCc3c(N4CCC(CCO)CC4)cccc32)C(=O)N1 (single isomer, unassigned) [Compound 66-4]
44 | < 100000 | CN(C(=O)OC(C)(C)C)C1CCN(c2cccc3c2CCCN3[C@H]2CCC(=O)NC2=O)CC1 (single isomer, unassigned) [Compound 61-5]
